In brackets after ≈: the same amount, converted by molar mass. Several values for one entry are separate records, joined by “and”; a condition that tells them apart may be missing. Equal entries are not always repeated. Each block holds one molecule with its values, some of them ahead of it.
Tests used:
Assay in all cases: ≥ marks a high value that may be exact or a test limit, other limits are often not marked, values filed in µg/mL are converted to µM
[1] = tested on: Pseudomonas aeruginosa ATCC 27853
[2] = tested on: Escherichia coli ATCC 25922
[3] = tested on: Enterococcus faecalis ATCC 29212
[4] = tested on: Staphylococcus aureus ATCC 29213
[5] = tested on: Candida albicans ATCC 10231
[6] = tested on: Aspergillus brasiliensis ATCC 16404
[7] = tested on: Micrococcus luteus DSM 20030
[8] = tested on: Salmonella typhimurium TA100
[9] = tested on: Acinetobacter baumannii
[10] = tested on: Pseudomonas aeruginosa CUN 4158-02
[11] = tested on: Klebsiella pneumoniae
[12] = tested on: Burkholderia cepacia
[13] = tested on: Staphylococcus aureus ATCC 43300
[14] = tested on: Staphylococcus aureus ATCC 25923
[15] = tested on: Candida albicans
[16] = tested on: Bordetella bronchiseptica CUN 11844-99
[17] = tested on: Staphylococcus aureus CUN 3792-99
[18] = tested on: Escherichia coli ESBL
[19] = tested on: Vibrio cholerae CUN 09
[20] = tested on: Streptococcus mutans
[21] = tested on: Salmonella enterica serovar Minnesota R60
[22] = tested on: Moraxella catarrhalis
[23] = tested on: Acinetobacter baumannii ATCC 19506
[24] = tested on: Enterococcus faecium
[25] = tested on: Escherichia coli K-12 594
[26] = tested on: Staphylococcus aureus SR1550
[27] = tested on: Staphylococcus aureus ATCC 6538P
[28] = tested on: Salmonella enterica subsp. enterica serovar Pullorum ATCC 7913
[29] = tested on: Salmonella enterica subsp. enterica serovar Typhimurium ATCC 14028
[30] = tested on: Escherichia coli 1005
[31] = tested on: Staphylococcus epidermidis ATCC 12228
[32] = tested on: Candida krusei CGMCC 2.1857
[33] = tested on: Candida tropicalis CGMCC 2.1975
[34] = tested on: Candida parapsilosis CGMCC 2.3989
[35] = tested on: Candida albicans ATCC 14053
[36] = tested on: Escherichia coli ATCC 11775
[37] = tested on: Staphylococcus aureus ATCC 12600
[38] = tested on: Micrococcus luteus ATCC 49732
[39] = tested on: Staphylococcus aureus
[40] = tested on: Streptococcus sanguinis

- MIC [7]: 13.5 µM (≈ 40.8 µg/mL)
- MIC [8]: 12.6 µM (≈ 38.3 µg/mL)
SMILES: CC(C)C[C@H](NC(=O)CNC(=O)[C@H](CCCCN)NC(=O)[C@H](CS)NC(=O)[C@@H](NC(=O)[C@H](CCCN=C(N)N)NC(=O)[C@H](CCCCN)NC(=O)[C@H](CC(N)=O)NC(=O)[C@H](CC(N)=O)NC(=O)[C@H](CCC(N)=O)NC(=O)[C@H](CCCN=C(N)N)NC(=O)[C@@H](NC(=O)[C@H](CS)NC(=O)[C@@H](N)CCCCN)C(C)C)C(C)C)C(=O)N[C@@H](CCCN=C(N)N)C(=O)N[C@@H](CCCCN)C(=O)N[C@@H](CCCN=C(N)N)C(=O)N[C@@H](CC(C)C)C(=O)N[C@@H](CCCN=C(N)N)C(=O)N[C@@H](CCCCN)C(=O)N[C@@H](Cc1ccccc1)C(=O)N[C@@H](CCCN=C(N)N)C(=O)N[C@@H](CC(N)=O)C(=O)N[C@@H](CCCCN)C(N)=O [KCVRQNNKRVCKGLRKRLRKFRNK]

- MIC [28]: 2 µM (≈ 3.04 µg/mL)
- MIC [4]: 16 µM (≈ 24.3 µg/mL)
- MIC [13]: 8 µM (≈ 12.2 µg/mL)
- MIC [29]: 4 µM (≈ 6.08 µg/mL)
- MIC [14]: 4 µM (≈ 6.08 µg/mL)
- MIC [30]: 4 µM (≈ 6.08 µg/mL)
- MIC [31]: 4 µM (≈ 6.08 µg/mL)
- MIC [15]: 4 µM (≈ 6.08 µg/mL)
- MIC [32]: 4 µM (≈ 6.08 µg/mL)
- MIC [33]: 2 µM (≈ 3.04 µg/mL)
- MIC [34]: ≥ 64 µM
SMILES: CC(C)C[C@H](NC(=O)[C@H](CCCN=C(N)N)NC(=O)[C@H](CC(C)C)NC(=O)[C@H](CC(C)C)NC(=O)[C@H](CC(C)C)NC(=O)[C@H](CCCN=C(N)N)NC(=O)[C@H](CC(C)C)NC(=O)[C@H](CCCN=C(N)N)NC(=O)[C@@H](N)CCCN=C(N)N)C(=O)N[C@@H](CCCN=C(N)N)C(=O)N[C@@H](CCCN=C(N)N)C(N)=O [RRLRLLLRLRR]

- MIC [35]: ≥ 144 µM
- MIC [36]: ≥ 193 µM
- MIC [37]: ≥ 193 µM
- MIC [38]: ≥ 64 µM
SMILES: CSCC[C@H](NC(=O)[C@@H](NC(=O)[C@@H](N)[C@@H](C)O)[C@@H](C)O)C(=O)N1CCC[C@H]1C(=O)N[C@@H](CC(C)C)C(=O)N[C@@H](Cc1c[nH]c2ccccc12)C(=O)O [TTMPLW]

Further lines, the molecule ahead of its results:

SMILES: CC[C@H](C)[C@H](NC(=O)[C@H](CCCCN)NC(=O)CNC(=O)[C@@H]1CCCN1C(=O)[C@H](Cc1cnc[nH]1)NC(=O)[C@H](CC(C)C)NC(=O)[C@H](CC(C)C)NC(=O)[C@H](Cc1ccc(O)cc1)NC(=O)[C@H](CS)NC(=O)CN)C(=O)N[C@@H](CS)C(=O)N[C@@H](Cc1ccc(O)cc1)C(=O)O [GCYLLHPGKICY]
- MIC [1]: > 64 µM
- MIC [2]: > 64 µM
- MIC [3]: > 64 µM
- MIC [4]: > 64 µM
- MIC [5]: > 64 µM
- MIC [6]: ≥ 64 µM

SMILES: NCCCC[C@H](NC(=O)CNC(=O)[C@H](CCCCN)NC(=O)[C@H](Cc1ccccc1)NC(=O)[C@H](CCCCN)NC(=O)[C@H](Cc1c[nH]c2ccccc12)NC(=O)[C@H](CCCN=C(N)N)NC(=O)[C@H](Cc1ccccc1)NC(=O)[C@H](CCCN=C(N)N)NC(=O)[C@H](CCCN=C(N)N)NC(=O)[C@H](Cc1ccc(O)cc1)NC(=O)[C@H](CCCCN)NC(=O)[C@H](CCCCN)NC(=O)[C@H](CS)NC(=O)CN)C(=O)N[C@@H](Cc1ccccc1)C(=O)N[C@@H](Cc1c[nH]c2ccccc12)C(=O)N[C@@H](Cc1ccccc1)C(=O)N[C@@H](Cc1c[nH]c2ccccc12)C(=O)NCC(N)=O [GCKKYRRFRWKFKGKFWFWG]
- MIC [1]: 94.4 µM (≈ 256 µg/mL)
- MIC [9]: ≥ 47.2 µM
- MIC [2]: 47.2 µM (≈ 128 µg/mL)
- MIC [10]: ≥ 47.2 µM
- MIC [11]: > 47.2 µM
- MIC [12]: 11.8 µM (≈ 32 µg/mL)
- MIC [13]: 11.8 µM (≈ 32 µg/mL)
- MIC [14]: 11.8 µM (≈ 32 µg/mL)
- MIC [15]: 94.4 µM (≈ 256 µg/mL)
- MIC [16]: 11.8 µM (≈ 32 µg/mL)
- MIC [17]: ≥ 47.2 µM
- MIC [18]: ≥ 47.2 µM and 23.6 µM
- MIC [19]: ≥ 94.4 µM
- MIC [20]: 11.8 µM (≈ 32 µg/mL)
- MIC [21]: 11.8 µM (≈ 32 µg/mL)
- MIC [22]: 11.8 µM (≈ 32 µg/mL)
- MIC [23]: ≥ 47.2 µM
- MIC [24]: 11.8 µM (≈ 32 µg/mL)

SMILES: CC(C)C[C@H](NC(=O)[C@H](Cc1cnc[nH]1)NC(=O)[C@H](CC(C)C)NC(=O)[C@H](CC(C)C)NC(=O)[C@H](CC(C)C)NC(=O)[C@H](CC(C)C)NC(=O)[C@H](CC(C)C)NC(=O)[C@H](Cc1cnc[nH]1)NC(=O)[C@H](CC(C)C)NC(=O)[C@@H](N)Cc1cnc[nH]1)C(=O)N[C@@H](Cc1cnc[nH]1)C(N)=O [HLHLLLLLHLH]
- MIC [25]: 25.8 µM (≈ 35 µg/mL)
- MIC [26]: 25.8 µM (≈ 35 µg/mL)
- MIC [27]: 11.8 µM (≈ 16 µg/mL)

SMILES: NC(=O)[C@H](Cc1ccccc1)NC(=O)[C@H](Cc1ccccc1)NC(=O)[C@H](Cc1ccccc1)NC(=O)[C@@H](N)Cc1ccccc1 [FFFF]
- MIC [39]: 583 µM (≈ 353 µg/mL)
- MIC [40]: ≥ 291 µM

— DBAASP
